{"source": "the supplement of paper PMC10307832", "assay_in_all_cases": "relative viability (nuclei count vs DMSO), 5 days (fraction); higher = more cells survive", "key": {"RO-3306 + Luminespib": {"compound": "C1=CC2=C(C=CC(=C2)C=C3C(=O)NC(=NCC4=CC=CS4)S3)N=C1 [RO-3306] + CCNC(=O)c1noc(-c2cc(C(C)C)c(O)cc2O)c1-c1ccc(CN2CCOCC2)cc1 [Luminespib] (partner 0.01 µM)", "method_in_brief": "(§1)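 Relative viability was taken as the ratio of nuclei in treated wells to nuclei in vehicle wells. Lung cancer cell lines in 1536-well plates received compounds by pin tool one day after seeding, either one drug alone or a fixed anchor-drug dose plus five library-drug doses (not always all listed) in √10 steps. Nuclei were counted on 4× images after 5 days of treatment, and values are medians of duplicate plates.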"}, "[1]": {"compound": "O=S(=O)(c1ccccc1)N(CC(F)(F)F)c1ccc(C(O)(C(F)(F)F)C(F)(F)F)cc1 + CC(=O)c1c(C)c2cnc(Nc3ccc(N4CCNCC4)cn3)nc2n(C2CCCC2)c1=O [Palbociclib] (partner 0.5 µM)", "method_in_brief": "as §1"}, "[2]": {"compound": "O=S(=O)(c1ccccc1)N(CC(F)(F)F)c1ccc(C(O)(C(F)(F)F)C(F)(F)F)cc1 + CS(=O)(=O)N1CCN(Cc2cc3nc(-c4cccc5[nH]ncc45)nc(N4CCOCC4)c3s2)CC1 [Pictilisib] (partner 1 µM)", "method_in_brief": "as §1"}, "[3]": {"compound": "O=S(=O)(c1ccccc1)N(CC(F)(F)F)c1ccc(C(O)(C(F)(F)F)C(F)(F)F)cc1 + Cc1cc(Nc2cc(N3CCN(C)CC3)nc(Sc3ccc(NC(=O)C4CC4)cc3)n2)n[nH]1 [Tozasertib] (partner 0.1 µM)", "method_in_brief": "as §1"}, "[4]": {"compound": "O=S(=O)(c1ccccc1)N(CC(F)(F)F)c1ccc(C(O)(C(F)(F)F)C(F)(F)F)cc1 + O=C(CCCCCCC(=O)Nc1ccccc1)NO [Vorinostat] (partner 1 µM)", "method_in_brief": "as §1"}, "[5]": {"compound": "O=S(=O)(c1ccccc1)N(CC(F)(F)F)c1ccc(C(O)(C(F)(F)F)C(F)(F)F)cc1 + O=C(c1cc(Cc2n[nH]c(=O)c3ccccc23)ccc1F)N1CCN(C(=O)C2CC2)CC1 [Olaparib] (partner 8 µM)", "method_in_brief": "as §1"}}}
{"cell line": "UMC-11", "values": [{"measurement": "relative viability", "setting": "RO-3306 + Luminespib; first compound 0.01 µM", "result": 0.955}, {"measurement": "relative viability", "setting": "RO-3306 + Luminespib; first compound 0.03162 µM", "result": 0.908}, {"measurement": "relative viability", "setting": "RO-3306 + Luminespib; first compound 0.1 µM", "result": 1.05}, {"measurement": "relative viability", "setting": "RO-3306 + Luminespib; first compound 0.3162 µM", "result": 1.08}, {"measurement": "relative viability", "setting": "RO-3306 + Luminespib; first compound 1 µM", "result": 1.06}, {"measurement": "relative viability", "setting": "[1]; first compound 0.8 µM", "result": 0.339}, {"measurement": "relative viability", "setting": "[1]; first compound 2.53 µM", "result": 0.346}, {"measurement": "relative viability", "setting": "[1]; first compound 8 µM", "result": 0.311}, {"measurement": "relative viability", "setting": "[2]; first compound 0.8 µM", "result": 0.908}, {"measurement": "relative viability", "setting": "[2]; first compound 2.53 µM", "result": 0.867}, {"measurement": "relative viability", "setting": "[2]; first compound 8 µM", "result": 1.14}, {"measurement": "relative viability", "setting": "[3]; first compound 0.8 µM", "result": 0.215}, {"measurement": "relative viability", "setting": "[3]; first compound 2.53 µM", "result": 0.22}, {"measurement": "relative viability", "setting": "[3]; first compound 8 µM", "result": 0.237}, {"measurement": "relative viability", "setting": "[4]; first compound 0.8 µM", "result": 0.381}, {"measurement": "relative viability", "setting": "[4]; first compound 2.53 µM", "result": 0.357}, {"measurement": "relative viability", "setting": "[4]; first compound 8 µM", "result": 0.396}, {"measurement": "relative viability", "setting": "[5]; first compound 0.8 µM", "result": 0.355}, {"measurement": "relative viability", "setting": "[5]; first compound 2.53 µM", "result": 0.459}, {"measurement": "relative viability", "setting": "[5]; first compound 8 µM", "result": 0.379}]}
